According to US20250230166A1, “OXADIAZOLE HDAC6 INHIBITORS AND USES THEREOF” (Eikonizo Therapeutics, Inc., priority 2022, published 2025):

Target: T1, Full length Human HDAC6 (Homo sapiens, UniProt Q9UBN7)
T1 construct: Full length Human HDAC6; FLAG (C); host or cells: baculovirus expression system
T1 sequence (Q9UBN7 1-1215): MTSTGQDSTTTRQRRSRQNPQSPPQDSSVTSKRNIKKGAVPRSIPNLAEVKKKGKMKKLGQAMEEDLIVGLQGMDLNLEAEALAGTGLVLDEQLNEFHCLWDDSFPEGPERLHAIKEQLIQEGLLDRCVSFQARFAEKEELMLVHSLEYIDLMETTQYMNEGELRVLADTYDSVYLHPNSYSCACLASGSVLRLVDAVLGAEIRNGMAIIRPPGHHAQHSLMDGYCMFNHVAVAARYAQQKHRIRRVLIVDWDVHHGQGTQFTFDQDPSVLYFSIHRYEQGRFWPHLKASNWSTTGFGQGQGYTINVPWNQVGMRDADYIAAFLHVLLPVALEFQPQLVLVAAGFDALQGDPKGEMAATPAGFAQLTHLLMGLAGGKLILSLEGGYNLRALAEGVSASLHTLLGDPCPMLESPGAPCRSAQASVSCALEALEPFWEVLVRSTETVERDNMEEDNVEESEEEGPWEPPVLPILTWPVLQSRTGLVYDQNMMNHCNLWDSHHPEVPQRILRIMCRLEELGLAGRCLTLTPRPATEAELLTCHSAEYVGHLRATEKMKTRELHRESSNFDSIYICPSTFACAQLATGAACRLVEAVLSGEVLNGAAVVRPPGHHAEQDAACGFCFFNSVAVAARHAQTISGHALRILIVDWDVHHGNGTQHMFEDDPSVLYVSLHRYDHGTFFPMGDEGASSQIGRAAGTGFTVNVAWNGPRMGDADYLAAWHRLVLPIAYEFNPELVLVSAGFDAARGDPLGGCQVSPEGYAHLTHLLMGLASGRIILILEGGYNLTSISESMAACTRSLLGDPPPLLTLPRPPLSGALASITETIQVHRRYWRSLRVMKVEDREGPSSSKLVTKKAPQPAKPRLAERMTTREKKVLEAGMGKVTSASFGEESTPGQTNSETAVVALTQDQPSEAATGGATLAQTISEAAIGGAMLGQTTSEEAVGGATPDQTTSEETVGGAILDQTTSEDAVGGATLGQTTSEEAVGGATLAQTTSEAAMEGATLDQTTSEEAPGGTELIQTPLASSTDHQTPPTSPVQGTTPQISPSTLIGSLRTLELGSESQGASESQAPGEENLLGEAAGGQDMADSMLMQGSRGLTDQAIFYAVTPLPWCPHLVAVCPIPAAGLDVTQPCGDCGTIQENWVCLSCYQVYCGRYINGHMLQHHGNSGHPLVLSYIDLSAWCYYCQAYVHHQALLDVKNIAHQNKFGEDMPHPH
Assay: In vitro HDAC6 enzymatic activity (Caliper endpoint assay or Nanosyn fluorogenic format)
Assay type: biochemical
Settings: 30 min pre-incubation with enzyme

Row | IC50 [nM] | SMILES
1 | 1 to 100 | FC(F)c1nnc(-c2ccc(COc3cccc4ncccc34)nc2)o1 [Compound 63, 2-(difluoromethyl)-5-[6-(5-quinolyloxymethyl)-3-pyridyl]-1,3,4-oxadiazole]
2 | 1 to 100 | FC(F)c1nnc(-c2ccc(COc3ccc4cccnc4c3)nc2)o1 [Compound 34, 2-(difluoromethyl)-5-[6-(7-quinolyloxymethyl)-3-pyridyl]-1,3,4-oxadiazole]
